The record followed here is patent publication US20130005034A1, “ARTIFICIAL PEPTIDE AND USE THEREOF” (TOAGOSEI CO., LTD, priority 2008, published 2013).

Where no end group is shown, it is not given here. Some results are limits rather than exact numbers.

The subject of test [1] is neural stem cells collected from a rat. Particulars: peptide 1 μM in culture broth, 24 hours.
Description: That is, these sample peptides were added to a culture broth of neural stem cells collected from a rat, and incubated. The amount of peptide added was adjusted so that the peptide concentration within the culture broth became 1 μM for each peptide.
In addition, the same sample was subjected to evaluation with a neuronal differentiation induction marker. That is, using tubulin as a marker for identifying neurons, the presence or absence of tubulin (i.e., of neurons) in the culture broth was determined by a fluorescent antibody method that uses a fluorescent dye-labeled anti-tubulin antibody for identifying this tubulin. In addition, using glial fibrillary acidic protein (GFAP), which is a cytoskeletal protein in glial cells, as a marker for identifying glial cells, the presence or absence of GFAP (i.e., of glial cells) in the culture broth was determined by a fluorescent antibody method that uses a fluorescent dye-labeled anti-GFAP antibody for identifying this GFAP.
Test [2] has as its system human iPS cells (cell line: 201B2). In words: iPS cell membrane permeability of FITC-labeled peptides (FITC fluorescence intensity, confocal laser scanning microscopy). Particulars: 1 hour; for Relative Intensity (FITC fluorescence): relative to Comparative Sample 2 at 0.5 μM = 1, average of five measurements; for introduction into artificial pluripotent stem cells: 0.5 μM or 1 μM. Type of test: cell-based. As to the method:
Next, the abilities of the three resulting synthesized peptides to pass through the cell membranes of artificial pluripotent stem cells (iPS cells) were investigated. Fluorescein isothiocyanate (FITC) was added beforehand to the N-terminus of each of the synthesized peptides.
The human iPS cells (cell line: 201B2) used in this example were procured from Kyoto University. The mouse embryo fibroblasts (cell line: SNL76/7) used as feeder cells were procured from ECACC, which supply the cells on commission from Dr. Allan Bradley.
The iPS cells thus acquired were cultured, using a human embryonic stem cell culture medium (DMEM/F12, containing 20% knockout serum replacement (KSR), 2 mM L-glutamine, 0.1 mM non-essential amino acids, 0.1 mM 2-mercaptoethanol, 50 units/50 μg/ml penicillin/streptomycin, and 4 ng/ml bFGF), in a 37° C., 5% CO2 environment on a gelatin-coated dish seeded with the above SNL feeder cells that had been mitomycin C-treated.
The cultured iPS cells were then treated with a CTK solution (containing 1 mg/ml collagenase IV, […], […] and 20% KSR), and recovered. Next, a suspension of microaggregates was prepared by pipetting, dispensed into each well of a commercial gelatin-coated 4-well chamber (culture) slide that had been seeded with mitomycin C-treated SNL feeder cells, and cultured in a 37° C., 5% CO2 environment for about 6 days.
The culture solution in each well was then replaced with a cell culture obtained by adding a peptide stock solution (1 mM) of any one of the above Sample 6 and Comparative Samples 1 and 2 that had been pre-labeled with FITC to a specified concentration (i.e., to a final concentration within the medium of 0.5 μM or 1 μM), and the cell culture was cultured for 1 hour in a 37° C., 5% CO2 environment.
Next, after washing with PBS, the cells within the wells were fixed with cold methanol, and were encapsulated using a DAPI-containing antifade reagent (Invitrogen).
Localization of the FITC-labeled peptides was confirmed using a confocal laser scanning microscope. Specifically, the FITC fluorescence intensity in each test group (the respective encapsulated samples to be measured) was measured by confocal laser scanning microscopic analysis. The measurement conditions were as follows.
Argon laser excitation wavelength: 488 nm
Objective lens: Plan-Apochromat 20×/0.75
The relative fluorescence intensity of each test group was calculated relative to a value of 1 for the fluorescence intensity of the test group in which Comparative Sample 2 was added to a final concentration within the culture medium of 0.5 μM. Measurement was independently carried out five times, and the average value of the five measurements was treated as the fluorescence intensity. In addition, micrographs obtained using a confocal laser scanning microscope to observe iPS cell cultures to which Sample 6 or Comparative Sample 2 was added to a final concentration of 1 μM (the above encapsulated test groups) are shown respectively in FIG. 7 (Sample 6 addition group) and FIG. 8 (Comparative Sample 2 addition group).

Consider KKRTLRKNDRKKR [Comparative Sample 1], for which, in test [1], the “differentiation to glial cells (GFAP marker)” value is “not observed” and the “neuronal differentiation (differentiation from neural stem cells to neurons, tubulin marker)” value is listed as “not observed”.

As to “SLQYLCRFVIRQYTRKKRTLRKNDRKKR-NH2 [Sample 2, SLQYLCRFVIRQYTR-KKRTLRKNDRKKR]”, in test [1], the “differentiation to glial cells (GFAP marker)” value is on record as “not observed”.

In the case of “RRRRRRRRRGTLKERCLQVVRSLVK [Comparative Sample 3, VHL peptide linked through a single glycine residue to the C-terminal end of polyarginine R9]”, the “Relative Intensity (FITC fluorescence)” value was under 1 in test [2] (0.5 μM final concentration) and 2.8 in test [2] (1.0 μM final concentration). Also, the “introduction into artificial pluripotent stem cells” value in test [2] is listed as “substantially not introduced”.

As for TLKERCLQVVRSLVKKKRTLRKNDRKKR [Sample 6], the figures for the “Relative Intensity (FITC fluorescence)” value in test [2] (0.5 μM final concentration) and in test [2] (1.0 μM final concentration) were 13.5 and 23.2, respectively.

With “TLKERCLQVVRSLVKSRRHHCRSKAKRSRHH [Comparative Sample 2, VHL peptide linked to the N-terminal end of hPER1-NLS]”, the “Relative Intensity (FITC fluorescence)” value in test [2] (0.5 μM final concentration) worked out at 1; in test [2] (1.0 μM final concentration) it was 4.8. For the same substance, the “introduction into artificial pluripotent stem cells” value in test [2] is given as “substantially not introduced”.
